Consider 21 compounds from patent US8530489B2 (Vertex Pharmaceuticals Incorporated, priority 2006, dated 2013).

Bounds are passed on as bounds.

Chain of PLK1 (P53350 whole entry): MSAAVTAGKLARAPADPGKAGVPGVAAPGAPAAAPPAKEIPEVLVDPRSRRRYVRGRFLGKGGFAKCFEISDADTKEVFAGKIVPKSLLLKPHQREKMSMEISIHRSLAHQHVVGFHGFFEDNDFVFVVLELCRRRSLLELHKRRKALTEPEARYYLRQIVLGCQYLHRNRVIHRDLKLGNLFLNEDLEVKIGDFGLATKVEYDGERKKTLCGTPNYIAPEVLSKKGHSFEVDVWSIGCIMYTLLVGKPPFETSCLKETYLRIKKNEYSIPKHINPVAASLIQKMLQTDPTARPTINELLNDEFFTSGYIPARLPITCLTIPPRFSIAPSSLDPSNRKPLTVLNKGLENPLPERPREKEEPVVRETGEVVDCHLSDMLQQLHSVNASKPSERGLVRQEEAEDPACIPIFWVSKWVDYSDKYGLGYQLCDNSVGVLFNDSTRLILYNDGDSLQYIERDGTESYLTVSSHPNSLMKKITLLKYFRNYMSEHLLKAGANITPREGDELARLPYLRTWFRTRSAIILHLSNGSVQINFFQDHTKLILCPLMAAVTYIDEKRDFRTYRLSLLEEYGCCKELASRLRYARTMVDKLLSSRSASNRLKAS

For this assay, the target named is PLK1 (Homo sapiens, UniProt P53350). Briefly: PLK1 Inhibition Assay I (radioactive-phosphate incorporation). As to conditions: Ki(app); PLK1 Inhibition Assay I or II (table does not say which). In kind it is biochemical. A digest of the protocol:
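Ki(app) values came from non-linear regression of initial rates after background subtraction, with phosphopeptide measured by phosphocellulose filter binding and scintillation counting. PLK1 at 2 nM was preincubated with compound (typically from 10 μM, 2-fold dilutions) for 10 min, then run 240 min at 25° C with 350 μM [γ-33P]ATP and 450 μM peptide substrate in HEPES pH 7.5 buffer.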
In the case of `CC(Nc1ncc(C#N)c(-c2c[nH]c3ncc(C(F)(F)F)cc23)n1)c1ccc(N2CCC(O)(C3CC3)CC2)nc1` (stereo not drawn) [Compound I-195, 2-(1-(6-(4-cyclopropyl-4-hydroxypiperidin-1-yl)pyridin-3-yl)ethylamino)-4-(5-(trifluoromethyl)-1H-pyrrolo[2,3-b]pyridin-3-yl)pyrimidine-5-carbonitrile], the Ki is 3 to 40 nM.

Take `COc1ccc(C(C)Nc2ncc(C#N)c(-c3c[nH]c4ncc(C(F)(F)F)cc34)n2)cn1` (stereo not drawn) [Compound I-52, 2-(1-(6-methoxypyridin-3-yl)ethylamino)-4-(5-(trifluoromethyl)-1H-pyrrolo[2,3-b]pyridin-3-yl)pyrimidine-5-carbonitrile]: the Ki was < 3 nM.

On to `CC(Nc1ncc(C#N)c(-c2c[nH]c3ncc(C(F)(F)F)cc23)n1)C1CCN(C(=O)C2CC2)CC1` (stereo not drawn) [Compound I-159, 2-(1-(1-(cyclopropanecarbonyl)piperidin-4-yl)ethylamino)-4-(5-(trifluoromethyl)-1H-pyrrolo[2,3-b]pyridin-3-yl)pyrimidine-5-carbonitrile], for which the Ki was < 3 nM.

For the compound `N#Cc1cnc(NCCN2CCSCC2)nc1-c1c[nH]c2ncc(C(F)(F)F)cc12` [Compound I-86, 2-(2-thiomorpholinoethylamino)-4-(5-(trifluoromethyl)-1H-pyrrolo[2,3-b]pyridin-3-yl)pyrimidine-5-carbonitrile], the Ki was > 40 nM.

As for `N#Cc1cnc(NCc2ccc(Oc3ccccc3)cc2)nc1-c1c[nH]c2ncc(C(F)(F)F)cc12` [Compound I-46, 2-(4-phenoxybenzylamino)-4-(5-(trifluoromethyl)-1H-pyrrolo[2,3-b]pyridin-3-yl)pyrimidine-5-carbonitrile], the Ki is > 40 nM.

As to `C[C@@H](Nc1ncc(C#N)c(-c2c[nH]c3ncc(C(F)(F)F)cc23)n1)C1CCN(CCO)CC1` [Compound I-215, 2-((R)-1-(1-(2-hydroxyethyl)piperidin-4-yl)ethylamino)-4-(5-(trifluoromethyl)-1H-pyrrolo[2,3-b]pyridin-3-yl)pyrimidine-5-carbonitrile], the Ki was < 3 nM.

For the compound `CCN1CCC(CNc2ncc(C#N)c(-c3c[nH]c4ncc(C(F)(F)F)cc34)n2)CC1` [Compound I-118, 2-((1-ethylpiperidin-4-yl)methylamino)-4-(5-(trifluoromethyl)-1H-pyrrolo[2,3-b]pyridin-3-yl)pyrimidine-5-carbonitrile], the Ki is > 40 nM.

Consider `C[C@H](Nc1ncc(C#N)c(-c2c[nH]c3ncc(C(F)(F)F)cc23)n1)c1ccc(O[C@@H]2CCN(C)C2)nc1` [Compound I-301, 2-((S)-1-(6-(I-1-methylpyrrolidin-3-yloxy)pyridin-3-yl)ethylamino)-4-(5-(trifluoromethyl)-1H-pyrrolo[2,3-b]pyridin-3-yl)pyrimidine-5-carbonitrile], for which the Ki is > 40 nM.

Take `CC(Nc1ncc(C#N)c(-c2c[nH]c3ncc(C(F)(F)F)cc23)n1)c1ccc(N2CCC(O)CC2)nc1` (stereo not drawn) [Compound I-162, 2-(1-(6-(4-hydroxypiperidin-1-yl)pyridin-3-yl)ethylamino)-4-(5-(trifluoromethyl)-1H-pyrrolo[2,3-b]pyridin-3-yl)pyrimidine-5-carbonitrile]: the Ki was < 3 nM.

For the compound `N#Cc1cnc(NC2(C(=O)NCC(F)(F)F)CCCCC2)nc1-c1c[nH]c2ncc(Cl)cc12` [IA-3, 1-(4-(5-chloro-1H-pyrrolo[2,3-b]pyridin-3-yl)-5-cyanopyrimidin-2-ylamino)-N-(2,2,2-trifluoroethyl)cyclohexanecarboxamide], the Ki lay in the range of 3 to 40 nM.

On to `CC(Nc1ncc(C#N)c(-c2c[nH]c3ncc(C(F)(F)F)cc23)n1)[C@H]1C[C@H](O)C1` (stereo partly drawn) [Compound I-269, 2-((S)-1-((1r,3S)-3-hydroxycyclobutyl)ethylamino)-4-(5-(trifluoromethyl)-1H-pyrrolo[2,3-b]pyridin-3-yl)pyrimidine-5-carbonitrile], for which the Ki lay in the range of 3 to 40 nM.

`Cc1ccc(S(=O)(=O)N2CCC(C(C)Nc3ncc(C#N)c(-c4c[nH]c5ncc(C(F)(F)F)cc45)n3)CC2)cc1` (stereo not drawn) [Compound I-165, 2-(1-(1-tosylpiperidin-4-yl)ethylamino)-4-(5-(trifluoromethyl)-1H-pyrrolo[2,3-b]pyridin-3-yl)pyrimidine-5-carbonitrile]: the Ki fell in the range of 3 to 40 nM.

`N#Cc1cnc(NC(CO)c2cccnc2)nc1-c1c[nH]c2ncc(C(F)(F)F)cc12` (stereo not drawn) [Compound I-113, 2-(2-hydroxy-1-(pyridin-3-yl)ethylamino)-4-(5-(trifluoromethyl)-1H-pyrrolo[2,3-b]pyridin-3-yl)pyrimidine-5-carbonitrile]: the Ki was > 40 nM.

As to `CC(Nc1ncc(C#N)c(-c2c[nH]c3ncc(C(F)(F)F)cc23)n1)C1CCN(S(=O)(=O)C2CC2)CC1` (stereo not drawn) [Compound I-158, 2-(1-(1-(cyclopropylsulfonyl)piperidin-4-yl)ethylamino)-4-(5-(trifluoromethyl)-1H-pyrrolo[2,3-b]pyridin-3-yl)pyrimidine-5-carbonitrile], the Ki is < 3 nM.

On to `CC(C)C[C@H](CO)Nc1ncc(C#N)c(-c2c[nH]c3ncc(C(F)(F)F)cc23)n1` [Compound I-44, 2-((R)-1-hydroxy-4-methylpentan-2-ylamino)-4-(5-(trifluoromethyl)-1H-pyrrolo[2,3-b]pyridin-3-yl)pyrimidine-5-carbonitrile], for which the Ki is > 40 nM.

Consider `C[C@H](N)CC(=O)N1CCC([C@@H](C)Nc2ncc(C#N)c(-c3c[nH]c4ncc(C(F)(F)F)cc34)n2)CC1` [Compound I-244, 2-((R)-1-(1-((S)-3-aminobutanoyl)piperidin-4-yl)ethylamino)-4-(5-(trifluoromethyl)-1H-pyrrolo[2,3-b]pyridin-3-yl)pyrimidine-5-carbonitrile], for which the Ki was < 3 nM.

On to `N#Cc1cnc(NCc2cnc3[nH]ccc3c2)nc1-c1c[nH]c2ncc(C(F)(F)F)cc12` [Compound I-120, 2-((1H-pyrrolo[2,3-b]pyridin-5-yl)methylamino)-4-(5-(trifluoromethyl)-1H-pyrrolo[2,3-b]pyridin-3-yl)pyrimidine-5-carbonitrile], for which the Ki lay within 3 to 40 nM.

In the case of `N#Cc1cnc(SCCc2ccccc2)nc1-c1c[nH]c2ncc(C(F)(F)F)cc12` [II-10, 2-(phenethylthio)-4-(5-(trifluoromethyl)-1H-pyrrolo[2,3-b]pyridin-3-yl)pyrimidine-5-carbonitrile], the Ki is > 40 nM.

With `C[C@H](O)[C@@H](CO)Nc1ncc(C#N)c(-c2c[nH]c3ncc(C(F)(F)F)cc23)n1` [Compound I-108, 2-((2R,3S)-1,3-dihydroxybutan-2-ylamino)-4-(5-(trifluoromethyl)-1H-pyrrolo[2,3-b]pyridin-3-yl)pyrimidine-5-carbonitrile], the Ki is 3 to 40 nM.

With `N#Cc1cnc(NCc2nc3ccccc3[nH]2)nc1-c1c[nH]c2ncc(C(F)(F)F)cc12` [Compound I-30, 2-((1H-benzo[d]imidazol-2-yl)methylamino)-4-(5-(trifluoromethyl)-1H-pyrrolo[2,3-b]pyridin-3-yl)pyrimidine-5-carbonitrile], the Ki was > 40 nM.

In the case of `CCOc1cccc(Sc2ncc(C#N)c(-c3c[nH]c4ncc(C(F)(F)F)cc34)n2)c1` [II-9, 2-(3-ethoxyphenylthio)-4-(5-(trifluoromethyl)-1H-pyrrolo[2,3-b]pyridin-3-yl)pyrimidine-5-carbonitrile], the Ki was > 40 nM.
